Experimental data as given in patent US20090215778A1, “Alpha-substituted Arylmethyl Piperazine Pyrazolo [1,5-alpha]Pyrimidine Amide Derivatives” (priority 2007, published 2009).
pIC50: −log10 of the molar value.

How the values were obtained:
HIV-1, NL4-3 strain = test: Virus infection assay (virus entry and single-cycle infection); type: cell-based; conditions: Human immunodeficiency virus 1, NL43, TZM-b1, read-out: Nl4
In short: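 Single-cycle entry/infection read-out: β-galactosidase chemiluminescence measured one day after infection. Compounds were present during a 4 h, 37 °C exposure of TZM-b1 reporter cells to NL4-3 virus at MOI 0.01 plus DEAE-dextran (80 μg/mL final), followed by addition of complete medium.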

[1] = target: T1, HIV Env six-helix bundle (6HB) structure (Human immunodeficiency virus type 1 group M subtype B, UniProt P04579); test: Six-helix bundle (6HB) assay; type: cell-based, HIV-1 (strain RF)
T1 construct: H9 cells chronically infected with HIV-1 (H9/HIV-1RF); endogenous in cells; host or cells: H9 cells chronically infected with HIV-1 strain RF (Env is made from the virus in the infected cells, not by transfection)
In short: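 Flow cytometry measured binding of a six-helix-bundle-specific polyclonal antibody, detected with PE-labelled secondary at 4 °C for 45 min, on H9/HIV-1 RF chronically infected cells. Compound was given 30 min at 37 °C before 1 μg/mL soluble CD4 induction for 1 h. Inhibition appears as reduced fluorescence.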

T1 sequence (P04579 32-519): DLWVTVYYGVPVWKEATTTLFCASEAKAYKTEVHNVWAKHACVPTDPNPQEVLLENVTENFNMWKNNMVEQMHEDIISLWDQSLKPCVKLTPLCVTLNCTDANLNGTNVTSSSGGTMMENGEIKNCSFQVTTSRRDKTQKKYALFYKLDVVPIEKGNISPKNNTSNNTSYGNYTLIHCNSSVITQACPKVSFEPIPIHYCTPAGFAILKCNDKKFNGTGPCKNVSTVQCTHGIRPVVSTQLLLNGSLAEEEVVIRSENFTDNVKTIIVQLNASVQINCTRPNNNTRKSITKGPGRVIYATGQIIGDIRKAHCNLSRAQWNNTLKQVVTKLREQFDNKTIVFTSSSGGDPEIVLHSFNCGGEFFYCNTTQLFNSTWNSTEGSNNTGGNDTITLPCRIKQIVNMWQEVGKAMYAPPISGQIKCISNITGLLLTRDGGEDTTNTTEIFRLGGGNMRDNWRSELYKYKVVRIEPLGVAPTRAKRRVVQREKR
T1 sequence (P04579 520-865): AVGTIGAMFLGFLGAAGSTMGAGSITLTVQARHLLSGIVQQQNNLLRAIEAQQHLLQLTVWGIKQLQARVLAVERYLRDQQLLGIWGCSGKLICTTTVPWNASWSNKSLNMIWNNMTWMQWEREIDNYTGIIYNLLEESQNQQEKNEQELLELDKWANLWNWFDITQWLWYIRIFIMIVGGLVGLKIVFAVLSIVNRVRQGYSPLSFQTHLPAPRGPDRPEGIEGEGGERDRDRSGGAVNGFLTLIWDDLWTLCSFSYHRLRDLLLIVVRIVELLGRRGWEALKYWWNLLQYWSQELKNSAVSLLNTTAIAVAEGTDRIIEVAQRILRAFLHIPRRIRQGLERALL

Row | SMILES | pIC50 (HIV-1, NL4-3 strain) | pIC50 [1]
1 | COc1ccc(-c2nc3c(C(=O)N4CCN([C@@H](CO)c5ccccc5)C[C@H]4C)cnn3c(C(F)(F)F)c2F)cc1 [methanone, [6-fluoro-5-(4-methoxyphenyl)-7-(trifluoromethyl)pyrazolo[1,5-α]pyrimidin-3-yl][(2R)-4-[(1R)-2-hydroxy-1-phenylethyl]-2-methyl-1-piperazinyl]-] | > 6.00 | > 6.00
2 | COc1ccc(-c2nc3c(C(=O)N4CCN([C@@H](CO)c5ccccc5)C[C@H]4C)cnn3c(N(C)C)c2F)cc1 [methanone, [7-(dimethylamino)-6-fluoro-5-(4-methoxyphenyl)pyrazolo[1,5-α]pyrimidin-3-yl][(2R)-4-[(1R)-2-hydroxy-1-phenylethyl]-2-methyl-1-piperazinyl]-] | > 6.00 | > 6.00
3 | COc1ccc(-c2nc3c(C(=O)N4CCN(C(CN)c5ccccc5)C[C@H]4C)cnn3c(C(F)(F)F)c2C)cc1 (stereo partly drawn) [methanone, [(2R)-4-(2-amino-1-phenylethyl)-2-methyl-1-piperazinyl][5-(4-methoxyphenyl)-6-methyl-7-(trifluoromethyl)pyrazolo[1,5-α]pyrimidin-3-yl]-] | > 6.00 | > 6.00
4 | COc1ccc(-c2nc3c(C(=O)N4CCN(C(c5ccccc5)C(C)O)C[C@H]4C)cnn3c(C(F)(F)F)c2C)cc1 (stereo partly drawn) [methanone, [(2R)-4-(2-hydroxy-1-phenylpropyl)-2-methyl-1-piperazinyl][5-(4-methoxyphenyl)-6-methyl-7-(trifluoromethyl)pyrazolo[1,5-α]pyrimidin-3-yl]-] | > 6.00 | > 6.00
5 | COc1ccc(-c2nc3c(C(=O)N4CCN(C(c5ccccc5)C(C)(C)O)C[C@H]4C)cnn3c(C(F)(F)F)c2C)cc1 (stereo partly drawn) [methanone, [(2R)-4-(2-hydroxy-2-methyl-1-phenylpropyl)-2-methyl-1-piperazinyl][5-(4-methoxyphenyl)-6-methyl-7-(trifluoromethyl)pyrazolo[1,5-α]pyrimidin-3-yl]-] | > 6.00 | > 6.00
6 | COc1ccc(-c2nc3c(C(=O)N4CCN(C(CO)c5cccc6c5OC(F)(F)O6)C[C@H]4C)cnn3c(C(F)(F)F)c2C)cc1 (stereo partly drawn) [methanone, [(2R)-4-[1-(2,2-difluoro-1,3-benzodioxol-4-yl)-2-hydroxyethyl]-2-methyl-1-piperazinyl][5-(4-methoxyphenyl)-6-methyl-7-(trifluoromethyl)pyrazolo[1,5-α]pyrimidin-3-yl]-] | > 6.00 | > 6.00
7 | COc1ccc(-c2nc3c(C(=O)N4CCN(C(CO)c5cccc(F)c5F)C[C@H]4C)cnn3c(C(F)(F)F)c2C)cc1 (stereo partly drawn) [methanone, [(2R)-4-[1-(2,3-difluorophenyl)-2-hydroxyethyl]-2-methyl-1-piperazinyl][5-(4-methoxyphenyl)-6-methyl-7-(trifluoromethyl)pyrazolo[1,5-α]pyrimidin-3-yl]-] | > 6.00 | > 6.00
8 | COc1ccc(-c2nc3c(C(=O)N4CCN(C(CO)c5cccc(OC)c5OC)C[C@H]4C)cnn3c(C(F)(F)F)c2C)cc1 (stereo partly drawn) [methanone, [(2R)-4-[1-(2,3-dimethoxyphenyl)-2-hydroxyethyl]-2-methyl-1-piperazinyl][5-(4-methoxyphenyl)-6-methyl-7-(trifluoromethyl)pyrazolo[1,5-α]pyrimidin-3-yl]-] | > 6.00 | > 6.00
9 | COc1ccc(-c2nc3c(C(=O)N4CCN(C(CO)c5ccc(F)cc5F)C[C@H]4C)cnn3c(C(F)(F)F)c2C)cc1 (stereo partly drawn) [methanone, [(2R)-4-[1-(2,4-difluorophenyl)-2-hydroxyethyl]-2-methyl-1-piperazinyl][5-(4-methoxyphenyl)-6-methyl-7-(trifluoromethyl)pyrazolo[1,5-α]pyrimidin-3-yl]-] | > 6.00 | > 6.00
10 | COc1ccc(-c2nc3c(C(=O)N4CCN(C(CO)c5ccc(OC)cc5OC)C[C@H]4C)cnn3c(C(F)(F)F)c2C)cc1 (stereo partly drawn) [methanone, [(2R)-4-[1-(2,4-dimethoxyphenyl)-2-hydroxyethyl]-2-methyl-1-piperazinyl][5-(4-methoxyphenyl)-6-methyl-7-(trifluoromethyl)pyrazolo[1,5-α]pyrimidin-3-yl]-] | > 6.00 | > 6.00
11 | COc1ccc(-c2nc3c(C(=O)N4CCN(C(CO)c5cc(F)ccc5F)C[C@H]4C)cnn3c(C(F)(F)F)c2C)cc1 (stereo partly drawn) [methanone, [(2R)-4-[1-(2,5-difluorophenyl)-2-hydroxyethyl]-2-methyl-1-piperazinyl][5-(4-methoxyphenyl)-6-methyl-7-(trifluoromethyl)pyrazolo[1,5-α]pyrimidin-3-yl]-] | > 6.00 | > 6.00
12 | COc1ccc(-c2nc3c(C(=O)N4CCN(C(CO)c5cc(OC)ccc5OC)C[C@H]4C)cnn3c(C(F)(F)F)c2C)cc1 (stereo partly drawn) [methanone, [(2R)-4-[1-(2,5-dimethoxyphenyl)-2-hydroxyethyl]-2-methyl-1-piperazinyl][5-(4-methoxyphenyl)-6-methyl-7-(trifluoromethyl)pyrazolo[1,5-α]pyrimidin-3-yl]-] | > 6.00 | 5.00 to 5.96
13 | COc1ccc(-c2nc3c(C(=O)N4CCN(C(CO)c5c(F)ccc(OC)c5F)C[C@H]4C)cnn3c(C(F)(F)F)c2C)cc1 (stereo partly drawn) [methanone, [(2R)-4-[1-(2,6-difluoro-3-methoxyphenyl)-2-hydroxyethyl]-2-methyl-1-piperazinyl][5-(4-methoxyphenyl)-6-methyl-7-(trifluoromethyl)pyrazolo[1,5-α]pyrimidin-3-yl]-] | > 6.00 | > 6.00
14 | COc1ccc(-c2nc3c(C(=O)N4CCN(C(CO)c5c(F)cccc5F)C[C@H]4C)cnn3c(C(F)(F)F)c2C)cc1 (stereo partly drawn) [methanone, [(2R)-4-[1-(2,6-difluorophenyl)-2-hydroxyethyl]-2-methyl-1-piperazinyl][5-(4-methoxyphenyl)-6-methyl-7-(trifluoromethyl)pyrazolo[1,5-α]pyrimidin-3-yl]-] | > 6.00 | > 6.00
15 | COc1ccc(-c2nc3c(C(=O)N4CCN(C(CO)c5ccc(OC)nc5OC)C[C@H]4C)cnn3c(C(F)(F)F)c2C)cc1 (stereo partly drawn) [methanone, [(2R)-4-[1-(2,6-dimethoxy-3-pyridinyl)-2-hydroxyethyl]-2-methyl-1-piperazinyl][5-(4-methoxyphenyl)-6-methyl-7-(trifluoromethyl)pyrazolo[1,5-α]pyrimidin-3-yl]-] | > 6.00 | > 6.00
16 | COc1ccc(-c2nc3c(C(=O)N4CCN(C(CO)c5ccccc5N)C[C@H]4C)cnn3c(C(F)(F)F)c2C)cc1 (stereo partly drawn) [methanone, [(2R)-4-[1-(2-aminophenyl)-2-hydroxyethyl]-2-methyl-1-piperazinyl][5-(4-methoxyphenyl)-6-methyl-7-(trifluoromethyl)pyrazolo[1,5-α]pyrimidin-3-yl]-] | 5.00 to 5.96 | 5.00 to 5.96
17 | COc1ccc(-c2nc3c(C(=O)N4CCN(C(CO)c5cc6ccccc6o5)C[C@H]4C)cnn3c(C(F)(F)F)c2C)cc1 (stereo partly drawn) [methanone, [(2R)-4-[1-(2-benzofuranyl)-2-hydroxyethyl]-2-methyl-1-piperazinyl][5-(4-methoxyphenyl)-6-methyl-7-(trifluoromethyl)pyrazolo[1,5-α]pyrimidin-3-yl]-] | > 6.00 | > 6.00
18 | COc1ccc(-c2nc3c(C(=O)N4CCN(C(CO)c5ccccc5Br)C[C@H]4C)cnn3c(C(F)(F)F)c2C)cc1 (stereo partly drawn) [methanone, [(2R)-4-[1-(2-bromophenyl)-2-hydroxyethyl]-2-methyl-1-piperazinyl][5-(4-methoxyphenyl)-6-methyl-7-(trifluoromethyl)pyrazolo[1,5-α]pyrimidin-3-yl]-] | > 6.00 | > 6.00
19 | COc1ccc(-c2nc3c(C(=O)N4CCN(C(CO)c5cccnc5Cl)C[C@H]4C)cnn3c(C(F)(F)F)c2C)cc1 (stereo partly drawn) [methanone, [(2R)-4-[1-(2-chloro-3-pyridinyl)-2-hydroxyethyl]-2-methyl-1-piperazinyl][5-(4-methoxyphenyl)-6-methyl-7-(trifluoromethyl)pyrazolo[1,5-α]pyrimidin-3-yl]-] | > 6.00 | > 6.00
20 | COc1ccc(-c2nc3c(C(=O)N4CCN(C(CO)c5ccccc5Cl)C[C@H]4C)cnn3c(C(F)(F)F)c2C)cc1 (stereo partly drawn) [methanone, [(2R)-4-[1-(2-chlorophenyl)-2-hydroxyethyl]-2-methyl-1-piperazinyl][5-(4-methoxyphenyl)-6-methyl-7-(trifluoromethyl)pyrazolo[1,5-α]pyrimidin-3-yl]-] | > 6.00 | > 6.00
21 | CCOc1ncccc1C(CO)N1CCN(C(=O)c2cnn3c(C(F)(F)F)c(C)c(-c4ccc(OC)cc4)nc23)[C@H](C)C1 (stereo partly drawn) [methanone, [(2R)-4-[1-(2-ethoxy-3-pyridinyl)-2-hydroxyethyl]-2-methyl-1-piperazinyl][5-(4-methoxyphenyl)-6-methyl-7-(trifluoromethyl)pyrazolo[1,5-α]pyrimidin-3-yl]-] | > 6.00 | > 6.00
22 | CCOc1ccccc1C(CO)N1CCN(C(=O)c2cnn3c(C(F)(F)F)c(C)c(-c4ccc(OC)cc4)nc23)[C@H](C)C1 (stereo partly drawn) [methanone, [(2R)-4-[1-(2-ethoxyphenyl)-2-hydroxyethyl]-2-methyl-1-piperazinyl][5-(4-methoxyphenyl)-6-methyl-7-(trifluoromethyl)pyrazolo[1,5-α]pyrimidin-3-yl]-] | > 6.00 | > 6.00
23 | COc1ccc(-c2nc3c(C(=O)N4CCN(C(CO)c5cccc(OC)c5F)C[C@H]4C)cnn3c(C(F)(F)F)c2C)cc1 (stereo partly drawn) [methanone, [(2R)-4-[1-(2-fluoro-3-methoxyphenyl)-2-hydroxyethyl]-2-methyl-1-piperazinyl][5-(4-methoxyphenyl)-6-methyl-7-(trifluoromethyl)pyrazolo[1,5-α]pyrimidin-3-yl]-] | > 6.00 | > 6.00
